Patent US8729074B2, “Inhibitors of PI3 kinase” (Amgen Inc., priority 2009, dated 2014)

Tests used:
[1] = test system: phosphorylation of Akt at Serine 473 in U87 MG cells; test: pAkt AlphaScreen (U87 cell); type: cell-based; settings: Homo sapiens, U-87 MG, 2 h; pAkt Ser473, U87 MG cells, compound two hours; average if run more than once
Experimental: pAkt AlphaScreen (U87 Cell)
The pAkt AlphaScreen® assay (PerkinElmer, Waltham, Mass.) determines whether there is phosphorylation of Akt at Serine 473 by recruitment of a phosphospecific antibody. This assay was performed using U87 MG cells. The U87 growth media consists of MEM (Gibco, Carlsbad, Calif.) supplemented with 10% FBS (Gibco), 1× Non-Essential Amino Acids (Gibco) and 1× Penicillin/Streptomycin/Glutamine (Gibco). The cells were maintained weekly using 0.05% Trypsin (Gibco) and replated in 150 mm TC—Treated Culture Dishes (Corning, Corning, N.Y.).
The first day of the assay, the adherent cells were trypsinized, media was added to the loose cells and cells were mixed to a homogenous mixture. 0.5 ml of the homogenous mixture was counted on the Beckman Coulter® Vi-CELL™ XR (Fullerton, Calif.). 50 frames of cells were counted and the number of viable cells was determined. The cells were then diluted to 0.25 million cells per ml, and centrifuged at 200 rcf for 5 minutes. The media was removed and the cells were reconstituted in fresh media for plating. The cells were plated at 20 μl per well on the PerkinElmer® Flexprop PLUS in Low Volume 384 Well White Tissue Culture Plates (Corning) with a final cell density of 5K cells per well. The plates were incubated overnight at 37° Celsius, 5% CO2.
On the second day, the compound plates were prepared, the cells were treated with compound and the pAkt reaction mix was added to the cell lysate. 384 well compound plates were prepared containing 1 μl of compound per well starting at 5 mM and diluted 1:2 across the row, resulting in a 22 well serial dilution. 39 μl of growth media was added to the compound plate in rows 1-22 using the PerkinElmer® Flexprop PLUS resulting in a DMSO concentration of 2.5%. The cell plates and diluted compound plates were put onto the VELOCITY11™ VPREP™ 384 ST where the compound plate was mixed and 5 μl of serially diluted compound or controls was added to the cell plate. The final concentration of the compounds was 25 μM serially diluted to 11.9 pM in 0.5% DMSO. The cell plates were then incubated with compound for two hours at 37° Celsius, 5% CO2. After two hours, the media in the cell plates was aspirated using the BioTek® ELx405HT plate washer (Winooski, Vt.) removing the majority of media and compound without disturbing the adherent U87 cells. The following assay reagents are components of the SureFire® Akt (Ser 473) Phosphorylation 50K Point Kit (TGR BioSciences, Adelaide, Australia) and an IgG Detection Kit (PerkinElmer, Waltham, Mass.). 5 μl of 1× Lysis Buffer was added to each well using the PerkinElmer® Flexprop PLUS. The plates were then incubated at room temperature on a shaker for ten minutes. The AlphaScreen® reaction was prepared under low light conditions (subdued or green light) including p-Akt (Ser 473) Reaction Buffer, Dilution Buffer, Activation Buffer, Acceptor Beads and Donor Beads at a ratio of 40:20:10:1:1 respectively. The AlphaScreen® reaction was added to the cell lysate at 6 μl per well using the PerkinElmer® Flexprop PLUS. The plates were placed in a humid environment to reduce edge effects and incubated overnight at room temperature with restricted air flow in the dark.
On the final day of the experiment, the plates were read on the PerkinElmer® EnVision™ 2103 Multilable Reader using the standard AlphaScreen® readout. The POC is calculated and the data is analyzed to report the IC50 IP for pAkt at Serine 473.
Activity data for the compounds tested in the PI3K cell based Akt assay is provided in Table 1 under the column heading U87

PI3Kα [2] = molecular target: T1, PI3Kα (Homo sapiens (Human), UniProt P42336); test: In vitro PI3K AlphaScreen assay; type: biochemical; settings: average if run more than once
Experimental: In Vitro PI3K AlphaScreen® Assay
The PI3K AlphaScreen® assay (PerkinElmer, Waltham, Mass.) measures the activity of a panel of four phosphoinositide 3-kinases: PI3Kα, PI3Kβ, PI3Kγ, and PI3Kδ. Each of these enzymes phosphorylates the 3′-hydroxyl group on phosphatidylinositiol (4,5)-bisphosphate (PIP2) to produce phosphatidylinositol (3,4,5)-trisphosphate (PIP3). This phosphorylation activity is measured using a GST-tagged PIP3 binding protein (Echelon Biosciences, Salt Lake City, Utah), an anti-GST-tagged Acceptor bead, and streptavidin-Donor bead. […] In the absence of this interaction, proximity of the Donor and Acceptor beads is decreased, producing a loss of luminescent signal which is inversely proportional to PI3K activity.
The enzyme reaction buffer is made using sterile water (Baxter, Deerfield, Ill.) and 50 mM Tris HCl pH 7, 14 mM MgCl2, 2 mM sodium cholate, and 100 mM NaCl. 2 mM DTT is added fresh the day of the experiment. The AlphaScreen® reaction buffer is made using sterile water and 10 mM Tris HCl pH 7.5, 150 mM NaCl, 0.10% Tween 20, and 30 mM EDTA. 1 mM DTT is added fresh the day of the experiment.
The source plates for this assay are 384-well Greiner clear polypropylene plates containing test compounds at 5 mM and diluted 1:2 over 22 points. Columns 23 and 24 contain only DMSO as these are designated for positive and negative controls. Source plates are replicated into 384-well Optiplates (PerkinElmer, Waltham, Mass.), 0.5 μL/well, to make assay-ready plates.
The different PI3K isoforms are each diluted in enzyme reaction buffer to 2× working solutions. […] Two different 2× substrate solutions are made in enzyme reaction buffer. In one solution, PI(4,5)P2 (Echelon Biosciences, Salt Lake City, Utah) is diluted to 10 μM and ATP is diluted to 20 μM. This solution is used in the assays testing PI3Kα and PI3Kβ. In a second solution, PI(4,5)P2 is diluted to 10 μM and ATP is diluted to 8 μM. This solution is used in the assays testing PI3Kγ and PI3Kδ.
The AlphaScreen® reaction solutions are made using beads from the anti-GST AlphaScreen® kit (PerkinElmer, Waltham, Mass.). Two solutions are made in Alphascreen reaction buffer to 4× working concentrations. In one solution, biotinylated-IP4 (Echelon Biosciences, Salt Lake City, Utah) is diluted to 40 nM and streptavadin-Donor Beads are diluted to 80 μg/mL. In the second solution, PIP3-binding protein (Echelon Biosciences, Salt Lake City, Utah) is diluted to 40 nM and anti-GST-Acceptor Beads are diluted to 80 μg/mL. 10 μL/well of enzyme reaction buffer is added to Column 24 of the assay ready plates in place of enzyme. This is done for plates in the PI3Kα, β, and δ assays.
Using a 384-well dispensing Multidrop (Titertek, Huntsville, Ala.), 10 μL/well of 2× enzyme (PI3Kα, β, δ) is added to Columns 1-23 of the appropriate assay ready plates (for PI3Kγ 10 μL is added to Columns 1-24). 10 μL/well of the appropriate substrate solution (the solution with 20 μM ATP for PI3Kα and β assays, and the solution with […] for PI3Kγ and δ assays) is then added to Columns 1-24 of the plates. Plates are then incubated at room temperature for 20 minutes.
In the dark, 10 μL/well of the Donor Bead solution is added to Columns 1-24 of the plates to quench the enzyme reaction. The plates are incubated at room temperature for 30 minutes. Still in the dark, 10 μL/well of the Acceptor Bead solution is also added to Columns 1-24 of the plates. The plates are then incubated in the dark for 1.5 hours. The plates are read on an Envision Multilabel Plate Reader (PerkinElmer, Waltham, Mass.) with a 680 nm excitation filter and a 520-620 nm emission filter.
Activity data for the compounds tested in the assay is provided in Table 1 under the column heading PI3Kα AlphaScreen®.

mTOR = mTOR (Homo sapiens (Human), UniProt P42345); test: In vitro mTOR Lanthascreen assay; type: biochemical; settings: average if run more than once
Excerpt: The Invitrogen (Carlsbad, Calif.) mammalian target of rapamycin (mTOR) Lanthascreen assay can be used to quantitate mTOR kinase activity in an in vitro setting. Active mTOR phosphorylates eukaryotic translation initiation factor 4E binding protein 1 (4E-BP1) on residue threonine 46. This phosphorylation event can be detected with a phospho-specific terbium (Tb) labeled Ab, in turn bringing the Tb label in close proximity to the GFP tagged 4E-BP 1 and allowing for time-resolved fluorescence resonance energy transfer (TR-FRET), which correlates 4E-BP1 phosphorylation levels with mTOR kinase activity.
Enzyme reaction buffer can be prepared in deionized water containing 50 mM HEPES (pH 7.5), 0.01% Polysorbate 20, 1 mM EGTA, and 10 mM MnCl2.
Dilutions of the compound to be tested can be prepared in 96-well polypropylene plates (Fisher Scientific, Waltham, Mass.). One row represents a 10-point dose of compound diluted 1:3 in enzyme reaction buffer and 20% dimethyl sulfoxide (DMSO). The top concentration for all compounds is 36 μM. Wells 6 and 12 can serve as the no compound (DMSO only) and high compound controls.
An mTOR substrate solution can prepared in enzyme reaction buffer containing 1600 nM green fluorescent protein tagged eukaryotic translation initiation factor 4E binding protein 1 (GFP-4E-BP1) (Invitrogen, Carlsbad, Calif.) and 28 uM adenosine triphosphate (ATP) (Calbiochem, Gibbstown, N.J.).
mTOR enzyme (Invitrogen, Carlsbad, Calif.) can be diluted in enzyme reaction buffer to a working concentration of 100 ng/mL.
The enzyme assay can be run in 384 well low volume assay plates (Corning, Corning, N.Y.). 2.5 uL of substrate solution containing GFP-4E-BP1 and ATP can be added to appropriate wells in the assay plate followed by 2.5 μL of compound dilutions. 5 μL of appropriately diluted mTOR enzyme can be added and the reaction allowed to proceed for 1 hour at room temperature. Final reagent concentrations in the enzyme assay are 50 ng/mL mTOR, 400 nM GFP-4E-BP1, and 7 μM ATP.
The enzyme assay can be terminated upon the addition of 10 μL of 20 mM EDTA and 4 nM Tb-labeled anti-phospho-4E-BP1 [T46] antibody (Invitrogen, Carlsbad, Calif.). The assay plate can then be incubated at room temperature for 1 hour and results read on a Tecan Safire II plate reader (Tecan, Männedorf, Switzerland).

PI3Kα [3] = molecular target: T1, PI3Kα; test: In vitro PI3 kinase enzyme assay (PI3K ATPLoss); type: biochemical; settings: average if run more than once
Experimental: Recombinant Expression of PI3K Enzymes
Full length p110 subunits of PI3K α, β and δ, N-terminally labeled with polyHis tag, can be co-expressed with p85 with Baculo virus expression vectors in sf9 insect cells. P110/p85 heterodimers can be purified by sequential Ni-NTA, Q-HP, Superdex-100 chromatography. Purified α, β and δ isozymes can be stored at −20° C. in 20 mM Tris, pH 8, 0.2M NaCl, 50% glycerol, 5 mM DTT, 2 mM Na cholate. […] The γ isozyme can be purified by sequential Ni-NTA, Superdex-200, Q-HP chromatography. The γ isozyme can be stored frozen at −80° C. in NaH2PO4, pH 8, 0.2M NaCl, 1% ethylene glycol, 2 mM β-mercaptoethanol.
In Vitro PI3 Kinase Enzyme Assays (PI3K ATPLoss)
PI3K enzyme assays (alpha, beta, delta and gamma) can be performed in 25 μL with the above final concentrations of components in white polyproplyene plates. Phosphatidyl inositol phosphoacceptor, PtdIns(4,5)P2 (e.g., P4508) can be obtained from Echelon Biosciences, Salt Lake City, Utah. […] Test compounds can be dissolved in DMSO and diluted with three-fold serial dilutions. The compound in DMSO (1 μL) may be added per test well, and the inhibition relative to reactions containing no compound, with and without enzyme can be determined. After assay incubation at RT, the reaction can be stopped and residual ATP can be determined by addition of an equal volume of a commercial ATP bioluminescence kit (Perkin Elmer EasyLite, Perkin Elmer, Waltham, Mass.) according to the manufacturer's instructions, and detected using an Analyst GT luminometer.

T1 sequence (P42336 whole entry): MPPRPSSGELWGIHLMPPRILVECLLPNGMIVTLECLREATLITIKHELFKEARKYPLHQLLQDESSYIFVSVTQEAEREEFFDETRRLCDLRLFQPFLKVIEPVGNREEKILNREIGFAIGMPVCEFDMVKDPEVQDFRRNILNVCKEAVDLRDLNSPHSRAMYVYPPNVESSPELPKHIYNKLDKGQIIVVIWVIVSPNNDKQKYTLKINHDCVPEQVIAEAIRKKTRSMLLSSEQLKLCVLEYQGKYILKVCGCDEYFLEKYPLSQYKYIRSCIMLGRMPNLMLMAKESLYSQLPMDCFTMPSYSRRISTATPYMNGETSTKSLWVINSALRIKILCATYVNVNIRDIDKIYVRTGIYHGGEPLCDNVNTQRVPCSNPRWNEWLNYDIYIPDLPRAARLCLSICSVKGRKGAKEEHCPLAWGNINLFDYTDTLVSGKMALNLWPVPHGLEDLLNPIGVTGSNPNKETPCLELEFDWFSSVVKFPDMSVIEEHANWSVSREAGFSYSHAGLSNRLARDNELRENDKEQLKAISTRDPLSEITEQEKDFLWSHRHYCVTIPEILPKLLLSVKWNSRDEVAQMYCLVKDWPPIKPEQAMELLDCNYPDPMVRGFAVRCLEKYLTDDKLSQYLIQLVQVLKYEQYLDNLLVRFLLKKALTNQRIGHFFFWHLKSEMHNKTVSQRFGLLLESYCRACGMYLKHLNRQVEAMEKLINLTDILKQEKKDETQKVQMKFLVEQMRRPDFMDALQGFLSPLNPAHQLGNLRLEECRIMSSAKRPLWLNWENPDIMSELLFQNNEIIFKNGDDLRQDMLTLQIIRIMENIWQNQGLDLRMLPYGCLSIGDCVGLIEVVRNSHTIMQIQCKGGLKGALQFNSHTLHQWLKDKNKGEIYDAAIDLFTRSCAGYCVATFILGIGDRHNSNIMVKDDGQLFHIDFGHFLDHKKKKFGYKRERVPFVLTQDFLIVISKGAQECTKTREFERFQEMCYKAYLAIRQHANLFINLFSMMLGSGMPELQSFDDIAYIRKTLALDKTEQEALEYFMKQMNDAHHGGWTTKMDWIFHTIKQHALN
T1 sequence (P27986 whole entry partner): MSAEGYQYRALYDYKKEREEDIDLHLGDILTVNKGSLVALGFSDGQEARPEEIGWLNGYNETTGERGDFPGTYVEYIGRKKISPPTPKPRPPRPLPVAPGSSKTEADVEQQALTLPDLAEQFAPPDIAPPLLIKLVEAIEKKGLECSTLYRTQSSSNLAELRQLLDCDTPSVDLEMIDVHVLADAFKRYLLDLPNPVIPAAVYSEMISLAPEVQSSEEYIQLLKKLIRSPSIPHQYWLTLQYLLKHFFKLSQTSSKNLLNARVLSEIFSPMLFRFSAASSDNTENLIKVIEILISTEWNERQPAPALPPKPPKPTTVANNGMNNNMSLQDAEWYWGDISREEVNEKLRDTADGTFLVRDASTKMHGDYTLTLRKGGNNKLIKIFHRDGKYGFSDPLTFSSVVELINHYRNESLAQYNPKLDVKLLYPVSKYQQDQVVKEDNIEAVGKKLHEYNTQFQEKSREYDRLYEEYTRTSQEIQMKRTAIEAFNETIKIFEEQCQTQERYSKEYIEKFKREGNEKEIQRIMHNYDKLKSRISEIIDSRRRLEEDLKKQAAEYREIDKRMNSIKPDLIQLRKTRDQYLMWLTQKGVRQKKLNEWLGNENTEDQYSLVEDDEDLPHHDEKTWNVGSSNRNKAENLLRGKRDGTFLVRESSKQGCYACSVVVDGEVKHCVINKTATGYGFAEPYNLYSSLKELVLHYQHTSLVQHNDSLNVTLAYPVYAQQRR
Chain of mTOR (P42345 1360-2549): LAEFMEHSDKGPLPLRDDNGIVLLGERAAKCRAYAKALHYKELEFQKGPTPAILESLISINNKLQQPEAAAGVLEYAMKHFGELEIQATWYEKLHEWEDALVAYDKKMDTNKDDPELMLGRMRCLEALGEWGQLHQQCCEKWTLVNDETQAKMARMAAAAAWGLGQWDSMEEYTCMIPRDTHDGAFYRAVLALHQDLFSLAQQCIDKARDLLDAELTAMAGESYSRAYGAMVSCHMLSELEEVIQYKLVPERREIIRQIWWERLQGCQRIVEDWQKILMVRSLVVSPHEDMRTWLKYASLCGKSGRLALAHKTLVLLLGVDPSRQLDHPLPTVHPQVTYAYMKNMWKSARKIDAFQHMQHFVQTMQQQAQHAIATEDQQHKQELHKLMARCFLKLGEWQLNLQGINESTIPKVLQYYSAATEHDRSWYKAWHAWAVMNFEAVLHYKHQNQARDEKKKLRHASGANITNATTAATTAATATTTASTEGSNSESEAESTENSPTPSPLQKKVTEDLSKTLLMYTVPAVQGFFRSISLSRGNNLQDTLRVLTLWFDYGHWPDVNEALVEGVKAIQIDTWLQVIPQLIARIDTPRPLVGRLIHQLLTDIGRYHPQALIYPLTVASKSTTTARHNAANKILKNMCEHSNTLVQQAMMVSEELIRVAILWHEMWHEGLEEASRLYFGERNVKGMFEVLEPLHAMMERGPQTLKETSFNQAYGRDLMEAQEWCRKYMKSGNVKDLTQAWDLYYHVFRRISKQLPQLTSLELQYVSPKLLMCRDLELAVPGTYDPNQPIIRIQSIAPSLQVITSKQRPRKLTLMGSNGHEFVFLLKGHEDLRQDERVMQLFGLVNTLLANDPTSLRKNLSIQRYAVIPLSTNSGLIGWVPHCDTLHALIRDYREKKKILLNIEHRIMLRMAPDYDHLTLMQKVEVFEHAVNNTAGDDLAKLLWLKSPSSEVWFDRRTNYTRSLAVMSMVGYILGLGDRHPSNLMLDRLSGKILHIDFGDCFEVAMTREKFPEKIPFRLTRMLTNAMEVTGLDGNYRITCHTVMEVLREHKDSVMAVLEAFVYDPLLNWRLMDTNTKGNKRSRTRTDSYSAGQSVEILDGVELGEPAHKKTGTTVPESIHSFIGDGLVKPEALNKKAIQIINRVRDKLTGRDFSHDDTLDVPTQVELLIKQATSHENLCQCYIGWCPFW

Question: Which IC50 [1] does the source give for `COc1cc(-c2cnc3ccc(N4C(=O)OC[C@@H]4Cc4ccccc4)cn23)cnc1OC` [Example 15, (4S)-4-Benzyl-3-(3-(5,6-dimethoxy-3-pyridinyl)imidazo[1,2-a]pyridin-6-yl)-1,3-oxazolidin-2-one] here?
Answer: 6620 nM

Question: What about the Ki (PI3Kα [2]) of the same compound?
Answer: 286 nM

Question: For `O=c1n(Cc2ccccc2)ccc2ncc(-c3cnc(Cl)c(NS(=O)(=O)c4ccc(F)cc4)c3)n12` [Example 17, N-(5-(6-Benzyl-5-oxo-5,6-dihydroimidazo[1,2-c]pyrimidin-3-yl)-2-chloropyridin-3-yl)-4-fluorobenzenesulfonamide], which IC50 (mTOR) is on record?
Answer: 180 nM

Question: And the Ki (PI3Kα [2])?
Answer: 465 nM

Question: With `O=S(=O)(Nc1cc(-c2cnc3ncccn23)cnc1Cl)c1ccc(F)cc1` [Example 24, N-(2-Chloro-5-(imidazo[1,2-a]pyrimidin-3-yl)pyridin-3-yl)-4-fluorobenzenesulfonamide] as the compound, how does the IC50 (PI3Kα [3]) read?
Answer: 781 nM

Question: And the IC50 (mTOR)?
Answer: > 50000 nM

Question: And the Ki (PI3Kα [2])?
Answer: 378 nM

Question: What does the source list for `O=S(=O)(Nc1cncc(-c2cnc3ccccn23)c1)c1ccc(F)cc1` [Example 2, 4-Fluoro-N-(5-imidazo[1,2-a]pyridin-3-yl-3-pyridinyl)benzenesulfonamide]?
Answer: IC50 (PI3Kα [3]): 931 nM; Ki (PI3Kα [2]): 1290 nM

Question: Which results are given for `COc1cc(-c2cnc3ccc(N4C(=O)OC[C@H]4Cc4ccccc4)cn23)cnc1OC` [Example 14, (4R)-4-Benzyl-3-(3-(5,6-dimethoxy-3-pyridinyl)imidazo[1,2-a]pyridin-6-yl)-1,3-oxazolidin-2-one]?
Answer: IC50 [1]: 6970 nM; Ki (PI3Kα [2]): 268 nM
